Experiment: xn = mol fraction of the nth substance listed, in the solute-free solvent

CC(N)C(=O)O (stereo not given) + O + CC(C)O
solubility (g/100 g solution)
Conditions | x2 = 0.1 | x2 = 0.2 | x2 = 0.3 | x2 = 0.4 | x2 = 0.5 | x2 = 0.6 | x2 = 0.7 | x2 = 0.8 | x2 = 0.9
283.15 K | 0.0186 | 0.0381 | 0.0478 | 0.104 | 0.185 | 0.376 | 0.772 | 1.58 | 3.5
293.15 K | 0.0303 | 0.046 | 0.0604 | 0.124 | 0.223 | 0.459 | 1.01 | 2.08 | 4.48
303.15 K | 0.0379 | 0.0557 | 0.0726 | 0.143 | 0.267 | 0.552 | 1.25 | 2.62 | 5.51
313.15 K | 0.0427 | 0.0643 | 0.0784 | 0.158 | 0.316 | 0.704 | 1.55 | 3.3 | 6.91
323.15 K | 0.0448 | 0.0801 | 0.113 | 0.167 | 0.372 | 0.842 | 1.85 | 4.04 | 8.23

COc1cc2c(cc1OC)-c1cc3ccc(OC)c(OC)c3c[n+]1CC2.[Cl-] + O + CC(C)O
solubility (g/100 g solution)
Conditions | 283.15 K | 288.15 K | 293.15 K | 298.15 K | 303.15 K | 308.15 K | 313.15 K | 318.15 K | 323.15 K | 328.15 K
x2 = 0.2703 | 0.15 | 0.185 | 0.238 | 0.315 | 0.402 | 0.504 | 0.629 | 0.775 | 0.949 | 1.16
x2 = 0.4546 | 0.201 | 0.247 | 0.317 | 0.417 | 0.531 | 0.663 | 0.824 | 1.01 | 1.24 | 1.51
x2 = 0.5883 | 0.269 | 0.33 | 0.423 | 0.553 | 0.7 | 0.872 | 1.08 | 1.32 | 1.6 | 1.95
x2 = 0.6897 | 0.356 | 0.437 | 0.559 | 0.725 | 0.933 | 1.19 | 1.46 | 1.76 | 2.11 | 2.49
x2 = 0.7693 | 0.463 | 0.593 | 0.762 | 0.958 | 1.25 | 1.49 | 1.82 | 2.18 | 2.62 | 3.11
x2 = 0.8334 | 0.587 | 0.719 | 0.914 | 1.17 | 1.46 | 1.8 | 2.19 | 2.65 | 3.18 | 3.81
x2 = 0.8861 | 0.724 | 0.887 | 1.12 | 1.43 | 1.85 | 2.25 | 2.72 | 3.24 | 3.85 | 4.53
x2 = 0.9303 | 0.871 | 1.07 | 1.35 | 1.7 | 2.17 | 2.67 | 3.23 | 3.87 | 4.64 | 5.28
x2 = 0.9678 | 1.03 | 1.26 | 1.59 | 1.99 | 2.5 | 3.05 | 3.69 | 4.4 | 5.23 | 6.04

Source: the CheMixHub drug solubility set
